# Literature values as cited in patent publication US20070122486A1, “Nanoparticulate insulin” (Elan Pharma International Limited, priority 2001, published 2007).
# Settings: physiological conditions
substance,measurement,value
"Soluble insulin: Available soluble composition of insulin, a 5.8 kD protein hormone",duration of activity,about six
same,onset of activity,about 30 minutes
